In publication PMC6517080 (Chembiochem : a European journal of chemical biology, 2018):

Biological target: antithrombin (AT) (Homo sapiens, UniProt P01008)
Test: ITC
Format: binding

Chain of antithrombin (AT) (P01008 33-464): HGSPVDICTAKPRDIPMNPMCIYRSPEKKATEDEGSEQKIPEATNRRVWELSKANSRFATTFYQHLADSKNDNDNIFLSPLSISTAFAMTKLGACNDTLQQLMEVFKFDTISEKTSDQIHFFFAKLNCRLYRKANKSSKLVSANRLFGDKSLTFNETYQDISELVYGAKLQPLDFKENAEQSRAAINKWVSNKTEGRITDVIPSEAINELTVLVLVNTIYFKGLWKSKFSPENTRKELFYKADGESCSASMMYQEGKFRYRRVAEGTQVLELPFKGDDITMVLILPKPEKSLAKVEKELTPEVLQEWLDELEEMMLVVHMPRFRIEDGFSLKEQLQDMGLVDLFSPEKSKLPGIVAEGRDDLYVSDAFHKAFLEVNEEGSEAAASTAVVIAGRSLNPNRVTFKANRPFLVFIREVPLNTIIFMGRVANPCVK

Kd	SMILES
551 nM	O=C(O)[C@H]1O[C@@H](Oc2ccc([N+](=O)[O-])cc2)[C@H](O)[C@@H](O)[C@@H]1O[C@H]1O[C@H](COS(=O)(=O)O)[C@@H](O[C@@H]2O[C@@H](C(=O)O)[C@@H](O[C@H]3O[C@H](COS(=O)(=O)O)[C@@H](O[C@@H]4O[C@H](C(=O)O)[C@@H](O[C@H]5O[C@H](COS(=O)(=O)O)[C@@H](O)[C@H](O)[C@H]5NS(=O)(=O)O)[C@H](O)[C@H]4O)[C@H](OS(=O)(=O)O)[C@H]3NS(=O)(=O)O)[C@H](O)[C@H]2OS(=O)(=O)O)[C@H](O)[C@H]1NS(=O)(=O)O [hexa-4]
1290 nM	O=C(O)[C@H]1O[C@@H](Oc2ccc([N+](=O)[O-])cc2)[C@H](O)[C@@H](O)[C@@H]1O[C@H]1O[C@H](COS(=O)(=O)O)[C@@H](O[C@@H]2O[C@@H](C(=O)O)[C@@H](O[C@H]3O[C@H](COS(=O)(=O)O)[C@@H](O[C@@H]4O[C@H](C(=O)O)[C@@H](O[C@H]5O[C@H](COS(=O)(=O)O)[C@@H](O)[C@H](O)[C@H]5NS(=O)(=O)O)[C@H](O)[C@H]4O)[C@H](OS(=O)(=O)O)[C@H]3NS(=O)(=O)O)[C@H](O)[C@H]2O)[C@H](O)[C@H]1NS(=O)(=O)O [hexa-8]
